Here are results for two molecules from article PMC11488110 (Theranostics, 2024).

Format in all cases: cell-based
Data set [1] relates to primary mouse astrocytes. The data set is described as follows: Cytotoxicity assay (EZ-Cytox) in primary mouse astrocytes. The note with it: up to 30 μM, 24 h.
Data set [2] deals with T1, hPPARα (Homo sapiens, UniProt Q07869).
T1 sequence (Q07869 1-468): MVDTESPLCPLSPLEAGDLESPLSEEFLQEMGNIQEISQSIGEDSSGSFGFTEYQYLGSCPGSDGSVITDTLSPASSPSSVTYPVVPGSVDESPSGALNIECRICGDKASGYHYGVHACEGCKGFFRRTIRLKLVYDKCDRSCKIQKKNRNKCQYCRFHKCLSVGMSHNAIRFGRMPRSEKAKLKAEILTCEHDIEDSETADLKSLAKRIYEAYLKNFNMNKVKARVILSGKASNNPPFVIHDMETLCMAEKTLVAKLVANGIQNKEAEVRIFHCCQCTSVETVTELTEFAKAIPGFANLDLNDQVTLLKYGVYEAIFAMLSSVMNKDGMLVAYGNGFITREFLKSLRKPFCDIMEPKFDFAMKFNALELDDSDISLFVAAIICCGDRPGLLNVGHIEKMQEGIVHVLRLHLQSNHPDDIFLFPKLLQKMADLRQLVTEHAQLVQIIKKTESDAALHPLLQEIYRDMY
The data set can be described thus: In vitro co-transfection (PPRE-luciferase) assay in CV-1 cells, hPPARα. The note with it: 24 h, read-out: Potency (EC50) hPPARα.

In data set [3] the target is T2, hPPARδ (Homo sapiens, UniProt Q03181).
T2 construct: expressed in transfected cells; host or cells: CV-1 monkey kidney cells
T2 sequence (Q03181 1-441): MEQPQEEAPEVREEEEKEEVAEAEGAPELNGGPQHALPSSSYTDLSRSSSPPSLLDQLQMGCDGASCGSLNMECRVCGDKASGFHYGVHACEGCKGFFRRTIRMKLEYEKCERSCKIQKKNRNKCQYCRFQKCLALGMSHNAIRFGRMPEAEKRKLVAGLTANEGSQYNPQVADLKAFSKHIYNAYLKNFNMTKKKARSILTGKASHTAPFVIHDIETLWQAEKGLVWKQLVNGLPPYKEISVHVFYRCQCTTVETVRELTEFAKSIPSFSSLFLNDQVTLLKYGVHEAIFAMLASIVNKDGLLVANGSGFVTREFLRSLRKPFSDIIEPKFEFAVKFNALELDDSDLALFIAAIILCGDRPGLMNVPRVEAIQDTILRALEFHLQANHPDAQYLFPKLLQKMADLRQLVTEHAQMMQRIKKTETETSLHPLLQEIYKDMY
The data set is described as follows: In vitro co-transfection (PPRE-luciferase) assay in CV-1 cells, hPPARδ.

The target of data set [4] is T3, hPPARγ (Homo sapiens, UniProt P37231).
T3 sequence (P37231 1-505): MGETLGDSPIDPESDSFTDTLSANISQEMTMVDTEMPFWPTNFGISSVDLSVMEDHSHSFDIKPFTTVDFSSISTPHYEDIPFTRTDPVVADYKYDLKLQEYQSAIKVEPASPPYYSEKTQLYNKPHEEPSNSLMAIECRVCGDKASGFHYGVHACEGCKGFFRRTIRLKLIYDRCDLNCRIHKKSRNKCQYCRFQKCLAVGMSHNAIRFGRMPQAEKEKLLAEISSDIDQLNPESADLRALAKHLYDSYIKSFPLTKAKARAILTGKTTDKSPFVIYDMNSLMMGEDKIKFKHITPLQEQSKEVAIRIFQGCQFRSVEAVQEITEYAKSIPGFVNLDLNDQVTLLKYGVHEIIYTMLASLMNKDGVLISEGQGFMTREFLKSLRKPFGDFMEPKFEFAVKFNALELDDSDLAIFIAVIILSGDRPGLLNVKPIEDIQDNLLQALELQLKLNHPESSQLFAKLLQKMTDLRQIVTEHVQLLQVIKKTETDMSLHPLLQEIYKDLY
The data set is described as follows: In vitro co-transfection (PPRE-luciferase) assay in CV-1 cells, hPPARγ. The note with it: 24 h, read-out: Potency (EC50) hPPARγ.

For `Cc1cc(SCc2sc(-c3ccc(C(F)(F)F)cc3)nc2C)ccc1OCC(=O)O` [GW501516, reference compound], the “Cytotoxicity in primary astrocytes” value in data set [1] is listed as “no cytotoxicity”.

What is called EC50 is the concentration giving half of the maximal effect. In the case of `Cc1cc([Se]Cc2[se]c(-c3ccc(C(F)(F)F)cc3)nc2C)ccc1OCC(=O)O` [Compound 5b, {2-Methyl-4-[4-methyl-2-(4-trifluoromethyl-phenyl)-selenazol-5-yl-methylselanyl]-phenoxy}-acetic acid], the EC50 in data set [2] is greater than 10 µM; in data set [3] (co-transfection assay, CV-1 cells, 24 h, read-out: Potency (EC50) hPPARδ), 0.0043 µM; in data set [4] it was greater than 10 µM. For the same molecule, the “Selectivity index hPPARα/hPPARδ” value in data set [3] (ratio EC50(hPPARα)/EC50(hPPARδ)) is greater than 2300. In addition, the “Selectivity index hPPARγ/hPPARδ” value in data set [3] (ratio EC50(hPPARγ)/EC50(hPPARδ)) was greater than 2300.
